Results published in ChEMBL document CHEMBL6092212, “Discovery of novel substituted (Z)-N'-hydroxy-3-(3-phenylureido)benzimidamide derivatives as multifunctional molecules targeting pathological hallmarks of Alzheimer's disease” (Eur J Med Chem, 2024).
Calls of active or inactive are those of the source. No cut-off for these calls is given here.

How the values were obtained:
[1] = Antioxidant activity assessed as DPPH radical scavenging activity at 20 to 200 uM incubated for 30 mins by absorbance based analysis relative to control; type: functional; conditions: dose 20-200 µM
Mus musculus [2] = test: Neuroprotective activity against scopolamine-induced cognitive deficit Swiss albino mouse model assessed as increase in BDNF mRNA level at 1.5 mg/kg, ip measured after 14 days by RT-PCR analysis; type: functional, organism-based; conditions: time 14.0 day
Mus musculus [3] = test: Reversal of scopolamine-induced cognitive deficit Swiss albino mouse model assessed as decrease in escape latency at 1.5 mg/kg, ip measured for 5 days by Morris water maze test; type: functional, organism-based; conditions: time 5.0 day
Mus musculus [4] = test: Reversal of scopolamine-induced cognitive deficit Swiss albino mouse model assessed as increase in time in platform quadrant at 1.5 mg/kg, ip measured after 5 days by Morris water maze test; type: functional, organism-based; conditions: time 5.0 day
Mus musculus [5] = test: Protection against scopolamine-associated dementia in Swiss albino mouse model assessed as increase in latency period at 1.5 mg/kg, ip measured after 14 days by Passive avoidance task method; type: functional, organism-based; conditions: time 14.0 day
Mus musculus [6] = test: Neuroprotective activity against scopolamine-induced cognitive deficit Swiss albino mouse model assessed as increase in TRKB mRNA level at 1.5 mg/kg, ip measured after 14 days by RT-PCR analysis; type: functional, organism-based; conditions: time 14.0 day
[7] = Induction of NO release upto 100 uM incubated for 5 to 10 mins by Griess assay; type: functional; conditions: time 5-10 min
PC-12 = test: Cytotoxicity against rat PC-12 cells upto 20 uM incubated for 24 hrs by MTT assay; type: toxicity, cell-based; conditions: pc-12, 24 h
HMC3 [8] = test: Antiinflammatory activity against LPS/ATP-induced human HMC3 cells assessed as reduction in nuclear translocation of NF-kappaB at 12.5 uM by immunocytochemistry based analysis; type: functional, cell-based
HMC3 [9] = test: Antiinflammatory activity against LPS/ATP-induced human HMC3 cells assessed as increase in vimentin level at 12.5 uM by immunocytochemistry based analysis; type: functional, cell-based
Mus musculus [10] = test: Neuroprotective activity against scopolamine-induced cognitive deficit Swiss albino mouse model assessed as increase in PSD95 mRNA level at 10 mg/kg, ip measured after 14 days by RT-PCR analysis; type: functional, organism-based; conditions: time 14.0 day
HMC3 [11] = test: Antiinflammatory activity against LPS/ATP-induced human HMC3 cells assessed as increase in Nrf2 level at 12.5 uM by Western blot analysis; type: functional, cell-based
HMC3 [12] = test: Inhibition of ROS production in LPS/ATP-induced human HMC3 cells at 12.5 uM incubated for 24 hrs by MitoSOX Red FM staining based analysis; type: functional, cell-based
Mus musculus [13] = test: Neuroprotective activity against scopolamine-induced cognitive deficit Swiss albino mouse model assessed as increase in c-FOS mRNA level at 10 mg/kg, ip measured after 14 days by RT-PCR analysis; type: functional, organism-based; conditions: time 14.0 day
HMC3 [14] = test: Antiinflammatory activity against LPS/ATP-induced human HMC3 cells assessed as reduction in IL-18 level at 12.5 uM by Western blot analysis; type: functional, cell-based
[15] = Metal chelating activity assessed as compound-Fe3+ complex formation at 600 uM incubated for 24 hrs by UV spectrophotometry
Acetylcholinesterase [16] = target: T1, Acetylcholinesterase (Homo sapiens, UniProt P22303); test: Inhibition of human AChE using ATCI as substrate preincubated for 30 mins followed by substrate addition measured after 30 mins by Ellman's method
T1 sequence (P22303 whole entry): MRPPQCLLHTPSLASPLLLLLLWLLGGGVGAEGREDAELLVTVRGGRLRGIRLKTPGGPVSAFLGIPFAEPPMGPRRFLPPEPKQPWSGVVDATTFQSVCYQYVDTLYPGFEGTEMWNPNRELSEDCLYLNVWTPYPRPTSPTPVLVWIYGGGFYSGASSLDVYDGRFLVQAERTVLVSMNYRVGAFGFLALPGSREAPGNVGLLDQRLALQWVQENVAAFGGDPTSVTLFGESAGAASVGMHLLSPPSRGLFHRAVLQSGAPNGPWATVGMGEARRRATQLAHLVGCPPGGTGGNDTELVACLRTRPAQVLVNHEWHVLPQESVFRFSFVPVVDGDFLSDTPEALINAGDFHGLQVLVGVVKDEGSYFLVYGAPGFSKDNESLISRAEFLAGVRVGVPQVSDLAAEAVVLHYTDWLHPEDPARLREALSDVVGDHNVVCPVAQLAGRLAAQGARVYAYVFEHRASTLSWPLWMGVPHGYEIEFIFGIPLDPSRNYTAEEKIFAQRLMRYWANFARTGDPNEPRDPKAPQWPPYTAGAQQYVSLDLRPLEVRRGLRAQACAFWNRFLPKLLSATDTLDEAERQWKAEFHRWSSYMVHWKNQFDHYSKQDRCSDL

Mus musculus [17] = test: Protection against scopolamine-associated dementia in Swiss albino mouse model assessed as increase in latency period at 10 mg/kg, ip measured after 14 days by Passive avoidance task method; type: functional, organism-based; conditions: time 14.0 day
[18] = target: Microtubule-associated protein tau (Homo sapiens) (UniProt P10636); test: Inhibition of Tau (unknown origin) aggregation at 1.125 uM incubated for 3 days by ThT assay; conditions: time 3.0 day
Microtubule-associated protein tau (Homo sapiens), sequence (P10636 whole entry): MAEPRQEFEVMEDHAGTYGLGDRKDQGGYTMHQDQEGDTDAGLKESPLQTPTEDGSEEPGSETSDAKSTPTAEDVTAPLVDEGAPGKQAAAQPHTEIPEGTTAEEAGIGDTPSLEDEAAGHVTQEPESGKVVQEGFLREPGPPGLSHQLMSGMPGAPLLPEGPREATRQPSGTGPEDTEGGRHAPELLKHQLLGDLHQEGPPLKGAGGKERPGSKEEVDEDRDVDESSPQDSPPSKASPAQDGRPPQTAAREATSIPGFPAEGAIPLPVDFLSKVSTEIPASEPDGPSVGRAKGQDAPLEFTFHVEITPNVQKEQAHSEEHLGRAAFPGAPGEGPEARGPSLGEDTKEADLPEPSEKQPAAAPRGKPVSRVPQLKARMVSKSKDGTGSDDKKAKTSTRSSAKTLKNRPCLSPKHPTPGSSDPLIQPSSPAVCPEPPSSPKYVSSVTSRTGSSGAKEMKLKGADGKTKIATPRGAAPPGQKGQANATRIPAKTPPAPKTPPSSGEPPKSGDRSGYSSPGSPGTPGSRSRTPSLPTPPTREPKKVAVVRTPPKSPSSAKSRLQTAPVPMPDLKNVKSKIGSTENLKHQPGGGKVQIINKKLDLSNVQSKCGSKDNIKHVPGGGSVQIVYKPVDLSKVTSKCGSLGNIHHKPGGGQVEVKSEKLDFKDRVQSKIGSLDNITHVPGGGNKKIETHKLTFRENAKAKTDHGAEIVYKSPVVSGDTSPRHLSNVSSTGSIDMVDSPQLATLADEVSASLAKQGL

HMC3 [19] = test: Antiinflammatory activity against LPS/ATP-induced human HMC3 cells assessed as reduction in NLRP3 level at 12.5 uM by Western blot analysis; type: functional, cell-based
HMC3 [20] = test: Antiinflammatory activity against LPS/ATP-induced human HMC3 cells assessed as reduction in NF-kappaB level at 12.5 uM by immunocytochemistry based analysis; type: functional, cell-based
HMC3 [21] = test: Antiinflammatory activity against LPS/ATP-induced human HMC3 cells assessed as reduction in NLRP3 level at 12.5 uM by immunocytochemistry based analysis; type: functional, cell-based
HMC3 [22] = test: Antiinflammatory activity against LPS/ATP-induced human HMC3 cells assessed as reduction in IL-1beta level at 12.5 uM by Western blot analysis; type: functional, cell-based
[23] = Acute toxicity in Swiss albino mouse assessed as signs of convulsion at 2000 mg/kg, po measured 14 days post-administration; type: organism-based; conditions: in vivo, 336 h, time 14 day
HMC3 [24] = test: Induction of mitochondrial membrane potential stability in LPS/ATP-induced human HMC3 cells at 12.5 uM incubated for 24 hrs by Rhodamine 123/JC-1 staining based analysis; type: functional, cell-based
Cholinesterase [25] = target: Cholinesterase (Homo sapiens, UniProt P06276); test: Inhibition of human BChE using BTCI as substrate preincubated for 30 mins followed by substrate addition measured after 30 mins by Ellman's method
Cholinesterase (Homo sapiens, UniProt P06276), sequence (P06276 whole entry): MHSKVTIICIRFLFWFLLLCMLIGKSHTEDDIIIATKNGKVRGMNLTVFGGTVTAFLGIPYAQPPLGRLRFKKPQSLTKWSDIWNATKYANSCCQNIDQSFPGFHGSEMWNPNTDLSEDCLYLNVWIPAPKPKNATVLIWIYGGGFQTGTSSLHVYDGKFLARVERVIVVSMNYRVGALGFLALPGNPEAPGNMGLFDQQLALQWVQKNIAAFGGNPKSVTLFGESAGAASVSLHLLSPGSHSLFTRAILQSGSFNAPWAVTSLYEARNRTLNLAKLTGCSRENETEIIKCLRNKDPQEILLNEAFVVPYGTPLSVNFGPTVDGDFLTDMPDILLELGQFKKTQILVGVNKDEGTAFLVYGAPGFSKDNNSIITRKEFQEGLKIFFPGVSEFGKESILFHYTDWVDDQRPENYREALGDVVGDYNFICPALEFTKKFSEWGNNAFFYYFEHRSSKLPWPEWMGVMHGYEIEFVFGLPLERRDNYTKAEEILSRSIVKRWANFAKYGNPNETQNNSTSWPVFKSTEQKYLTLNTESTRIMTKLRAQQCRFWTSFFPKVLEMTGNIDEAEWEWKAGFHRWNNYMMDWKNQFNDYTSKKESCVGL

Acetylcholinesterase [26] = target: T1, Acetylcholinesterase; test: Mixed inhibition of human AChE using ATCI as substrate at 0.1 to 5 uM preincubated for 30 mins followed by substrate addition by Ellman's method; conditions: dose 0.1-5 µM
Mus musculus [27] = test: Neuroprotective activity against scopolamine-induced cognitive deficit Swiss albino mouse model assessed as increase in PKA mRNA level at 10 mg/kg, ip measured after 14 days by RT-PCR analysis; type: functional, organism-based; conditions: time 14.0 day
Mus musculus [28] = test: Neuroprotective activity against scopolamine-induced cognitive deficit Swiss albino mouse model assessed as increase in TRKB mRNA level at 10 mg/kg, ip measured after 14 days by RT-PCR analysis; type: functional, organism-based; conditions: time 14.0 day
Mus musculus [29] = test: Neuroprotective activity against scopolamine-induced cognitive deficit Swiss albino mouse model assessed as increase in CREB1 mRNA level at 10 mg/kg, ip measured after 14 days by RT-PCR analysis; type: functional, organism-based; conditions: time 14.0 day
[30] = Acute toxicity in Swiss albino mouse assessed as animal survival at 2000 mg/kg, po measured 14 days post-administration; type: organism-based; conditions: in vivo, 336 h, time 14 day
Mus musculus [31] = test: Reversal of scopolamine-induced cognitive deficit Swiss albino mouse model assessed as increase in number of entries in target quadrant at 10 mg/kg, ip measured after 5 days by Morris water maze test; type: functional, organism-based; conditions: time 5.0 day
[32] = Acute toxicity in Swiss albino mouse assessed as signs of diarrhea at 2000 mg/kg, po measured 14 days post-administration; type: organism-based; conditions: in vivo, 336 h, time 14 day
Mus musculus [33] = test: Reversal of scopolamine-induced cognitive deficit Swiss albino mouse model assessed as reduction in distance traveled to reach platform at 10 mg/kg, ip measured after 5 days by Morris water maze test; type: functional, organism-based; conditions: time 5.0 day
Mus musculus [34] = test: Neuroprotective activity against scopolamine-induced cognitive deficit Swiss albino mouse model assessed as increase in Nr4a2 mRNA level at 10 mg/kg, ip measured after 14 days by RT-PCR analysis; type: functional, organism-based; conditions: time 14.0 day
[35] = Permeability of compound in PBS at pH 7.4 at 500 uM by PAMPA; type: ADME; conditions: read-out: permeability
HMC3 [36] = test: Inhibition of LPS/ATP-induced cytotoxicity against human HMC3 cells at 12.5 uM incubated for 24 hrs by MTT assay; type: functional, cell-based
[37] = Acute toxicity in Swiss albino mouse assessed as signs of abnormal behaviour at 2000 mg/kg, po measured 14 days post-administration; type: organism-based; conditions: in vivo, 336 h, time 14 day
Mus musculus [38] = test: Neuroprotective activity against scopolamine-induced cognitive deficit Swiss albino mouse model assessed as increase in GAP43 mRNA level at 10 mg/kg, ip measured after 14 days by RT-PCR analysis; type: functional, organism-based; conditions: time 14.0 day
[39] = target: Cholinesterase (Equus caballus) (UniProt P81908); test: Competitive inhibition of equine BChE using BTCI as substrate at 1 to 10 uM preincubated for 30 mins followed by substrate addition by Ellman's method; conditions: dose 1-10 µM
Cholinesterase (Equus caballus), sequence (P81908 whole entry): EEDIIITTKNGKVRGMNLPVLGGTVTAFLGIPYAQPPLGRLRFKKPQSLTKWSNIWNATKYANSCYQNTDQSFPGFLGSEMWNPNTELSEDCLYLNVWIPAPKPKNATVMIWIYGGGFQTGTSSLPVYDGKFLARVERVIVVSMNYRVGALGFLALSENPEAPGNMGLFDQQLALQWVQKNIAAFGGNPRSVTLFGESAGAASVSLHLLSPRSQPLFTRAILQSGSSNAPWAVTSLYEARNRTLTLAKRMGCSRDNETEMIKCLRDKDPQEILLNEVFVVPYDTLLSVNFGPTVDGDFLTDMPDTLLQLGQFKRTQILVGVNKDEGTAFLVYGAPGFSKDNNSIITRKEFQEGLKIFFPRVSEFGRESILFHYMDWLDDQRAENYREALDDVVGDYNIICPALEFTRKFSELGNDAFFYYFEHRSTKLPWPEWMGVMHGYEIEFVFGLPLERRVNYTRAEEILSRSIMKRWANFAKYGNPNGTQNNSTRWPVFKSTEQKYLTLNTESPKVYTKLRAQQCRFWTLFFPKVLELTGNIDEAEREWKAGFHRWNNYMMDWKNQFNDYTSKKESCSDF

Cholinesterase [40] = target: Cholinesterase (Equus caballus, UniProt P81908); test: Inhibition of equine BChE using BTCI as substrate preincubated for 30 mins followed by substrate addition measured after 30 mins by Ellman's method
Cholinesterase (Equus caballus, UniProt P81908), sequence (P81908 whole entry): as above

Mus musculus [41] = test: Neuroprotective activity against scopolamine-induced cognitive deficit Swiss albino mouse model assessed as increase in BDNF mRNA level at 10 mg/kg, ip measured after 14 days by RT-PCR analysis; type: functional, organism-based; conditions: time 14.0 day
HMC3 [42] = test: Antiinflammatory activity against LPS/ATP-induced human HMC3 cells assessed as reduction in caspase-1 level at 12.5 uM by Western blot analysis; type: functional, cell-based
[43] = Acute toxicity in Swiss albino mouse assessed as signs of over-weight gain at 2000 mg/kg, po measured 14 days post-administration; type: organism-based; conditions: in vivo, 336 h, time 14 day
[44] = Acute toxicity in Swiss albino mouse assessed as signs of tremor at 2000 mg/kg, po measured 14 days post-administration; type: organism-based; conditions: in vivo, 336 h, time 14 day
[45] = Antioxidant activity assessed as inhibition of DPPH radical scavenging activity incubated for 30 mins by absorbance based analysis; type: functional
Mus musculus [46] = test: Reversal of scopolamine-induced cognitive deficit Swiss albino mouse model assessed as decrease in escape latency at 10 mg/kg, ip measured for 5 days by Morris water maze test; type: functional, organism-based; conditions: time 5.0 day
HMC3 [47] = test: Antiinflammatory activity against LPS/ATP-induced human HMC3 cells assessed as decrease in Iba-1 level at 12.5 uM by Western blot analysis; type: functional, cell-based
[48] = target: Amyloid-beta precursor protein (Homo sapiens) (UniProt P05067); test: Inhibition of self-mediated Amyloid beta (1 to 42)(unknown origin) aggregation at 3.125 uM incubated for 3 days by ThT assay; conditions: time 3.0 day
Amyloid-beta precursor protein (Homo sapiens), sequence (P05067 whole entry): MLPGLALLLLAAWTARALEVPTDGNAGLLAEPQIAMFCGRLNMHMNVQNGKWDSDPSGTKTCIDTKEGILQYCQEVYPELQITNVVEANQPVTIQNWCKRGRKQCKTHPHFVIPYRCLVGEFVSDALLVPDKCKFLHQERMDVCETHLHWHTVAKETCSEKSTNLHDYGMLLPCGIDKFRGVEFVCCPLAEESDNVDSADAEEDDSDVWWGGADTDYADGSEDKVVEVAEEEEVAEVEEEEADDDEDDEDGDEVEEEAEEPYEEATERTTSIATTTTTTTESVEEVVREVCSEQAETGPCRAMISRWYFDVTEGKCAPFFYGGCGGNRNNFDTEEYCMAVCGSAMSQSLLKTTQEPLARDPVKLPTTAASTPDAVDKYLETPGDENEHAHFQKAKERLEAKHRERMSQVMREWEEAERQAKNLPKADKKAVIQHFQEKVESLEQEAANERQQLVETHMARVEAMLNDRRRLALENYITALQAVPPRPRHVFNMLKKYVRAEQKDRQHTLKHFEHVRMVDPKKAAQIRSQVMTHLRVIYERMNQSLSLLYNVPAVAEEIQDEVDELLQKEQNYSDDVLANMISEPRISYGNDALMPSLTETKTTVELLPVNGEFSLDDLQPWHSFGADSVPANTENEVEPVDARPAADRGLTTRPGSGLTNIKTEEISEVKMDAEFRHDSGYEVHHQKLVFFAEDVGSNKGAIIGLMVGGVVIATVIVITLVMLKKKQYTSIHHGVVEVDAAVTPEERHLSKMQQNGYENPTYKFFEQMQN

HMC3 [49] = test: Inhibition of mitochondrial impairment in LPS/ATP-induced human HMC3 cells at 12.5 uM incubated for 24 hrs by Rhodamine 123/JC-1 staining based analysis; type: functional, cell-based
Mus musculus [50] = test: Reversal of scopolamine-induced cognitive deficit Swiss albino mouse model assessed as increase in time in platform quadrant at 10 mg/kg, ip measured after 5 days by Morris water maze test; type: functional, organism-based; conditions: time 5.0 day

CCN(C)C(=O)Oc1cccc([C@H](C)N(C)C)c1
Activity [1]: 4.73% | Activity (Mus musculus [2]): Active | Activity (Mus musculus [3]): Active | Activity (Mus musculus [4]): Active | Activity (Mus musculus [5]): Active | Activity (Mus musculus [6]): Active

COc1ccc2[nH]cc(CCNC(=O)Nc3cccc(/C(N)=N/O)c3)c2c1
Activity [7]: inactive | Activity (PC-12): Non-toxic | Activity (HMC3 [8]): Active | Activity (HMC3 [9]): Active | Activity (Mus musculus [10]): Active | Activity (HMC3 [11]): Active | Activity [1]: 47.3% | inhibition (HMC3 [12]): Active | Activity (Mus musculus [13]): Active | Activity (HMC3 [14]): Active | Activity [15]: inactive | IC50 (Acetylcholinesterase [16]): 910 nM | Activity (Mus musculus [17]): Active | inhibition [18]: Active | Activity (HMC3 [19]): Active | Activity (HMC3 [20]): Active | Activity (HMC3 [21]): Active | Activity (HMC3 [22]): Active | Activity [23]: Non-toxic | Activity (HMC3 [24]): Active | IC50 (Cholinesterase [25]): 1010 nM | inhibition (Acetylcholinesterase [26]): Active | Activity (Mus musculus [27]): Active | Activity (Mus musculus [28]): Active | Activity (Mus musculus [29]): Active | Activity [30]: Non-toxic | Activity (Mus musculus [31]): Active | Activity [32]: Non-toxic | Activity (Mus musculus [33]): Active | Activity (Mus musculus [34]): Active | Papp at 500 µM [35]: 12.3 ×10⁻⁶ cm/s | inhibition (HMC3 [36]): Active | Activity [37]: Non-toxic | Activity (Mus musculus [38]): Active | inhibition [39]: Active | IC50 (Cholinesterase [40]): 1190 nM | Activity (Mus musculus [41]): Active | Activity (HMC3 [42]): Active | Activity [43]: Non-toxic | Activity [44]: Non-toxic | IC50 [45]: 15200 nM | Activity (Mus musculus [46]): Active | Activity (HMC3 [47]): Active | inhibition [48]: Active | inhibition (HMC3 [49]): Active | Activity (Mus musculus [50]): Active
